Data set [1] is described as follows: Metabolic stability in human liver microsomes (microsomal clearance). Format: in vitro ADME. Conditions: pH 7.4; human liver microsomes 0.25 mg protein/mL, 0.5 μM compound, NADPH, 37° C.; read-out: mClint. As to the method:
Samples of the tested compounds (0.5 μM) were preincubated together with human liver microsomes (0.25 mg of microsomal protein/mL) in 0.05 M potassium phosphate buffer of pH 7.4 in microtiter plates at 37° C. for 5 minutes. The reaction was started by adding NADPH (1.0 mM). After 0, 5, 10, 15, 20 and 30 minutes, an aliquot was removed, the reaction was cooled and stopped by adding twice the amount of quench solution consisting of acetonitrile/methanol 1:1, and containing 0.2 μM carbutamide as internal standard. The samples were frozen until analyzed. The remaining concentration of undegraded test substance was determined by liquid chromatography-tandem mass spectrometry (LC-MS/MS). The half-life (t1/2) was determined from the gradient of the ratio of the signal of (test substance/internal standard)/unit time plot, allowing the calculation of the half-life of the test substance, assuming first order kinetics, from the decrease in the concentration of the compound with time. The microsomal clearance (mClint) was calculated as follows: mClint=((ln(2)/t 1/2)/Microsomal Protein Concentration (mg/ml))*1000, leading to the unit of μL/min/mg.
In general terms: Liver microsomes are a subcellular fraction often used to study metabolism.

The target of a further data set is T1, h-5-HT6 receptor (Homo sapiens, UniProt P50406).
T1 construct: expressed in transfected cells
Briefly: 5-HT6 receptor binding assay (displacement of [3H]-LSD). As to conditions: cloned human 5-HT6 receptor, HEK293 membranes, 1 nM [3H]-LSD. As to the method: Displacement of radioligands binding to the following cloned human receptors
1. Preparation of Membranes by Ultrasonic Treatment and Differential Centrifugation
Cells from stable clonal cell lines expressing the corresponding receptor (5-HT6, α1-adrenergic, dopamine D2 or histamine H1 receptors) were washed with PBS (w/o Ca^++, Mg^++) and harvested in PBS with 0.02% EDTA. The cells were collected by centrifugation at 500 g for 10 min. at 4° C., washed with PBS and centrifuged (500 g, 10 min. 4° C.). The pellets were stored at −80° C. until use. For membrane preparation, the thawed cell pellet was resuspended in ice-cold sucrose buffer (0.25 M sucrose, 10 mM Hepes (pH 7.4), 1 mM Phenylmethylsulfonyl fluoride (PMSF) in DMSO, 5 μg/ml Pepstatin-A, 3 mM EDTA, 0.025% Bacitracin) and homogenized with a Branson Sonifier W-250 (Settings: Timer 4; Output Control 3; Duty Cycle constant; 2 to 3 cycles). Cell disruption was checked with the aid of a microscope. Remaining unbroken cells were pelleted at 1.000 g for 10 min. at 4° C. The sucrose buffer supernatant was then centrifuged at 60.000 g for 1 h at 4° C. (Beckman Ultrazentrifuge XL 80). The pellet was resuspended in 30 ml ice-cold Tris buffer (20 mM TRIS (pH 7.4), 5 μg/ml Pepstatin A, 0.1 mM PMSF, 3 mM EDTA) by pipetting through a 10 ml serological pipet and centrifuged for 1 h at 4° C. at 60.000 g. A final resuspension was performed in a small volume of ice-cold Tris buffer (see above) by pressing through a serological pipet followed by ultrasonic treatment with a Branson Sonifier W-250 (Settings: Timer 1; Output Control 3; Duty Cycle constant; 1 cycle). Protein concentration was determined (BCA-Kit; Pierce) and aliquots stored at −80° C. or in liquid nitrogen for long-term storage.
2. Receptor Binding Experiments
All receptor binding experiments were carried out in the corresponding assay buffer in a total volume of 200 μl in the presence of various concentrations of test compound (10^−5 M to 10^−9 M, tenfold serial dilution, duplicate determinations). The assays were terminated by filtration on polyethylenimine (PEI 0.1% or 0.3%) presoaked Packard Unifilter Plates (GF/C or GF/B) with a Tomtec MachIII U 96 well-plate harvester. After the plates had been dried for 2 h at 55° C. in a drying chamber scintillation cocktail (BetaPlate Scint; PerkinElmer) was added. Radioactivity was measured in a Microbeta Trilux two hours after the addition of the scintillation mixture. Data derived from liquid scintillation counting were analysed by iterative non-linear regression analysis with the use of the Statistical Analysis System (SAS): a program similar to “LIGAND” as described by Munson and Rodbard (Analytical Biochemistry 107, 220-239 (1980).
a) 5-HT6 Receptor Binding Assay
HEK293 cells stably expressing the h-5-HT6 receptor (NCBI Reference Sequence XM 001435) were cultured in RPMI1640 medium supplemented with 25 mM HEPES, 10% fetal calf serum and 1-2 mM glutamine. The membrane preparation was performed as described in section 1. […] Non-specific binding was defined with 1 μM methiothepin. The binding reaction was carried out for 3.5 h at room temperature. During the incubation, the plates were shaken on a plate shaker at 100 rpm and terminated by filtration on Packard Unifilter GF/C (0.1% PEI) plates, followed by 2 wash cycles with ice-cold 50 mM Tris-HCl, 5 mM CaCl2.
Data derived from liquid scintillation counting were analyzed by iterative non-linear regression analysis with the use of the Statistical Analysis System (SAS): a program similar to “LIGAND” as described by Munson and Rodbard (Anal. Biochem. 1980, 107, 220-239). Fitting was performed according to formulae described by Feldman (Anal. Biochem. 1972, 48, 317-338). IC50, nH and Ki values were expressed as geometrical mean.
For orientation: Loss of bound radioactivity is the signal in a displacement assay; it reports binding, not function.

T1 sequence (P50406 whole entry): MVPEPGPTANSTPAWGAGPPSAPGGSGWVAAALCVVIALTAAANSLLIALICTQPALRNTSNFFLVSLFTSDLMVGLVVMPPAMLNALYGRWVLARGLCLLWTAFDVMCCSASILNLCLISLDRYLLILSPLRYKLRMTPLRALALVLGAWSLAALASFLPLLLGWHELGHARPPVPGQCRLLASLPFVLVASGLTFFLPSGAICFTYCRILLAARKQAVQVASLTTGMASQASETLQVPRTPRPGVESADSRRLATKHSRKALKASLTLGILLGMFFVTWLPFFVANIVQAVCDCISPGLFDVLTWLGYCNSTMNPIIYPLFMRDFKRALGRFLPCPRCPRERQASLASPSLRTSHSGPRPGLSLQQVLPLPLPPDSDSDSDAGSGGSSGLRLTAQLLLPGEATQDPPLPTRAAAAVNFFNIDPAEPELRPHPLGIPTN

For `COc1ccccc1S(=O)(=O)c1cnc2c(N3CC(O)C3)cccc2c1` [Example 39, 1-[3-(2-Methoxyphenyl)sulfonyl-8-quinolyl]azetidin-3-ol], the microsomal CLint at 0.5 μM in data set [1] is 60 to 120 µL/min/mg. Also, the inhibition constant Ki at h-5-HT6 receptor was in the range of 10 to 100 nM.
Regarding `O=S(=O)(c1ccccc1)c1cnc2c(N3CC[C@@H](O)[C@@H](O)C3)cccc2c1` [Example 41, (3S,4R)-1-[3-(Benzenesulfonyl)-8-quinolyl]piperidine-3,4-diol], the microsomal CLint at 0.5 μM in data set [1] is less than 30 µL/min/mg. Moreover, the Ki on h-5-HT6 receptor is less than 10 nM.
As for `O=S(=O)(c1ccccc1)c1cnc2c(N3C[C@@H](O)[C@@H](O)C3)cccc2c1` [Example 42, (3R,4S)-1-[3-(Benzenesulfonyl)-8-quinolyl]pyrrolidine-3,4-diol], the microsomal CLint at 0.5 μM in data set [1] is less than 30 µL/min/mg. Besides, the Ki on h-5-HT6 receptor was less than 10 nM.
As for `O=C(O)C1CN(c2cccc3cc(S(=O)(=O)c4cccc(C(F)(F)F)c4)cnc23)C1` [Example 44, 1-[3-[3-(Trifluoromethyl)phenyl]sulfonyl-8-quinolyl]azetidine-3-carboxylic Acid], in data set [1], the microsomal CLint at 0.5 μM was less than 30 µL/min/mg. On h-5-HT6 receptor, this compound came in with an inhibition constant (Ki) of 10 to 100 nM.
Turning to `O=S(=O)(c1ccccc1)c1cnc2c(N3C[C@@H](O)[C@H](O)C3)cccc2c1` [Example 45, (3R,4R)-1-[3-(Benzenesulfonyl)-8-quinolyl]pyrrolidine-3,4-diol], in data set [1], the microsomal CLint at 0.5 μM was less than 30 µL/min/mg. Besides, the Ki at h-5-HT6 receptor is less than 10 nM.

One may read the Ki as the equilibrium dissociation constant of an inhibitor or competing ligand from its target.

Source of the values: patent US10160744B2, “Quinoline compounds suitable for treating disorders that respond to the modulation of the serotonin 5-HT6 receptor” (Abbvie Deutschland GmbH & Co. KG, priority 2016, dated 2018).
